From article PMC4995024, “Ligand Binding at the α4-α4 Agonist-Binding Site of the α4β2 nAChR Triggers Receptor Activation through a Pre-Activated Conformational State” (PLoS ONE, 2016)
Values joined by “and” are separate entries in the source; they are usually repeats but may differ in a detail not shown here. Equal values may be shown once. “Also recorded” adds a separate entry of the source. Read-outs that look alike come from different tables or passages of the source. Marks after values point to notes of the source that are not given here.

Tests used:
[1] = biological target: T1, 3α4:2β2 nAChR (Homo sapiens, UniProt P17787+P43681); parameters: expressed in transfected cells; host or cells: Xenopus laevis oocytes injected with cRNA (α4:β2 ratio 4:1); method as in PMID 16720757, PMID 21795528; conditions: 3α4:2β2 stoichiometry; cited from earlier work
T1 sequence (P43681 29-627 limits assumed): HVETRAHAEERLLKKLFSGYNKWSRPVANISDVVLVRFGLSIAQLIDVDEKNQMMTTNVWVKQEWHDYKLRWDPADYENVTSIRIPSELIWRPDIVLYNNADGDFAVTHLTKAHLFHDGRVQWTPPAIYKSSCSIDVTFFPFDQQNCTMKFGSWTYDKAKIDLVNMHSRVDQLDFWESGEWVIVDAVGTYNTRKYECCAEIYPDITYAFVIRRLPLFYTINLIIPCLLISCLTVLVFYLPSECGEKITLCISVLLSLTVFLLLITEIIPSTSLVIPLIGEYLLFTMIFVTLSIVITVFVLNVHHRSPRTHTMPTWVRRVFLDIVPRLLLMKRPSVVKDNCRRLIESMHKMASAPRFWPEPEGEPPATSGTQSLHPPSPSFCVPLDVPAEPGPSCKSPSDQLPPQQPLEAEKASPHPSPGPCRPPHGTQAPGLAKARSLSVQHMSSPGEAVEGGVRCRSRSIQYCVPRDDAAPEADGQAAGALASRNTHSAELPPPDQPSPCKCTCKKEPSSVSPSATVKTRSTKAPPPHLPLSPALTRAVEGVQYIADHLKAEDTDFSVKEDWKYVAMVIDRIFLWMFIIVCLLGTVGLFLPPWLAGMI
T1 sequence (P17787 26-502): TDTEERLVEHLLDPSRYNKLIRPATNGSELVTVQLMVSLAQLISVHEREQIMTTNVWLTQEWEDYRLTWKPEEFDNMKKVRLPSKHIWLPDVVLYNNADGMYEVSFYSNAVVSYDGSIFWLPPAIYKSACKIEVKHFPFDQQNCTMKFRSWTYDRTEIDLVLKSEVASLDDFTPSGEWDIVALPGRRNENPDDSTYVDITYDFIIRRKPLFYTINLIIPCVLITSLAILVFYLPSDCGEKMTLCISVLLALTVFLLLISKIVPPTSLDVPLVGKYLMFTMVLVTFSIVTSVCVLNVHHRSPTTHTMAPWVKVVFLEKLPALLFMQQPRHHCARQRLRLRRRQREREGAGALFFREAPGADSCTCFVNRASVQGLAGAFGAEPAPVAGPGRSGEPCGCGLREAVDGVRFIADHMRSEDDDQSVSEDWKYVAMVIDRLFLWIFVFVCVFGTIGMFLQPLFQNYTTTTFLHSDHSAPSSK

[2] = biological target: T1, 3α4:2β2 nAChR; test: Two-electrode voltage-clamp electrophysiology in Xenopus oocytes, WT 3α4:2β2 receptor; assay type: cell-based; parameters: expressed in transfected cells; host or cells: Xenopus laevis oocytes injected with cRNA (α4:β2 ratio 4:1); conditions: for Est Pomax: normalized to 1 mM ACh + NS206 (10 μM); for Decrease of EC50 value by co-application of NS9283 / Increase of maximum response by co-application of NS9283: 3α4:2β2, NS9283 10 μM; for Agonist type: 3α4:2β2, relative to saturating ACh (1 mM)
Description: (§1) cDNA encoding human nAChR α4 and β2 subunits were cloned, and cRNA was prepared as previously described. A triple-point-mutated β2^m subunit with the mutations V136H, F144Q, and L146T was constructed as previously described.
(§2) This study was carried out in strict accordance with the Australian Code of Practice for the Care and Use of Animals for Scientific Purposes. The protocol for this specific study was approved by the Animal Ethics Committee of the University of Sydney (Protocol number: 2013/5915). All surgical procedures were carried out in under anesthesia induced by immersion in a tricaine solution to ameliorate suffering. […] Mature female Xenopus laevis frogs were anaesthetised with 0.17% tricaine (buffered with 0.06% sodium bicarbonate) for 15 minutes, after which the loss of righting reflex was confirmed before transferring on to ice where surgeries were performed. A small (1–2 cm) abdominal incision was made through both the skin and muscle layer with surgical knives. Ovary lobes were removed with a pair of forceps, and kept in oocyte releasing 2 (OR2) buffer (82.5 mM NaCl, 2 mM KCl, 1 mM MgCl2, 5 mM HEPES hemisodium; pH 7.4). The skin and muscle layer were sutured separately, and frogs were allowed to recover for six months before they were reselected for surgeries. A total of five recoverable surgeries with 6–12 months recovery periods between surgeries were performed on each frog to reduce the adverse effects of Xenopus transportation into Australia, as approved by the Animal Ethics Committee of the University of Sydney (Protocol number: 2013/5915) before a terminal surgery was performed, in which a lethal dose of tricaine (0.5%) was used. Briefly, lobes from ovaries of female adult X. laevis were removed and defolliculated to obtain isolated oocytes. Oocytes were injected with a total of ∼25 ng of cRNA encoding human WT receptor as shown earlier to express 3α4:2β2 and 2α4:3β2 [17], and incubated for 2–5 days at 15–18°C.
(§3) Oocytes were subjected to two-electrode voltage-clamp electrophysiological testing using a custom-built system where solutions were applied directly to the oocytes via a glass capillary tube placed in the vicinity of the cell. This ensured a solution exchange rate faster than two seconds. Ligand was applied for 30 sec and peak current amplitudes were measured. To minimise the effects of long desensitized states, the number of applications of ligand at each oocyte was minimized rather than performing full concentration-response curves on individual oocytes.
(§4) Concentration–response curves for Sazetidine-A and TC-2559 were fitted using GraphPad Prism 6 to a monophasic Hill equation with Hill Slope of 1: I=Imax(1/1+(EC50/A)) Where Imax is the maximum current, EC50 is the concentration that produces the half-maximal response and [A] is the concentration of ligand.
Concentration–response curves for ACh were fitted using GraphPad Prism 6 to a biphasic Hill equation with Hill slopes of 1: I=Imax*((Frac1/1+(EC50(1)/[A]))+(Frac2/1+(EC50(2)/[A]))) Where Frac1 and Frac2 are the fractions and EC50(1) and EC50(2) are the half-maximal concentrations of high and low-sensitivity phases of the concentration-response curves, respectively.
Ideally, single-channel recordings would be used to estimate the Po,max values; however this is technically highly challenging for α4β2 nAChRs due to channel rundown and desensitization. To overcome this, an alternate method utilizing co-application of ACh and NS206, a positive allosteric modulator (PAM), was used to estimate the maximum open probability (Est. Po,max) at 3α4:2β2 receptors. […] We have assumed that when both the positive allosteric modulator and native ligand ACh are bound, the probability of the receptor being opened is approaching one, and was previously successfully used for other members of LGICs.

[3] = biological target: T1, 3α4:2β2 nAChR; test: Linear kinetic models (Model 1, Model 2) of 3α4:2β2 receptor activation; conditions: for Constant multiplier C (CE / CF): from change in EC50 and Po,max when NS9283 (10 μM) applied in addition to the agonist
Description: To determine how binding at the α4-α4 site alters receptor transitions during activation, two simple linear kinetic models were used to describe receptor activation when two α4-β2 binding sites are occupied. For simplicity the binding of two ligands at α4-β2 sites is combined into a single step. The first model (Model 1) is a three-step model designed to determine whether the third ligand alters: (i) the binding affinity of ligands at the α4-β2 site (cooperativity); (ii) the transitions between closed and open states (gating) or (iii) the transitions between open and a distinct closed state in the presence of ligand (desensitization). The second model (Model 2) expanded the gating transitions to investigate whether a pre-activation (flipping) step is altered. We then determined which equilibrium constant was principally modulated in these models when NS9283 bound to the α4-α4 site potentiated the Saz-A or TC-2559 responses.
The open probability for the first model is given by (Fig 4A): PoCtrl=E.[A]/K+[A](1+E+E.D) (1) Where E is the gating constant, [A] is the agonist concentration, K is the dissociation constant of Saz-A or TC-2559, and D is the desensitizing constant. By rearranging Eq 1 to isolate [A]: PoCtrl=E/1+E+E.D/1+K/[A].(1+E+E.D) (2)
The open probability curve will fit to a Hill equation with a slope coefficient of one, since the ligand binding steps have been simplified by aggregating into a single transition. It follows from Eq 2 that the maximum open probability (when [A] approaches infinity) is given by: Po,maxCtrl=E/1+E+E.D (3) and the half-maximum effective concentration is: EC50Ctrl=K/1+E+E.D (4) It is apparent from Eq 3 that to determine the equilibrium constants for this kinetic model, the open probability (Po) of the receptor must be estimated by normalizing to the responses to ACh and NS206, rather than normalizing to the response of a saturating concentration of ACh.
The open probability in the presence of NS9283 ( Po.maxNS ; the superscript denotes when NS9283 is co-applied) and half-maximum effective concentration ( EC50NS ) can be described by substituting E with CE.E in Eqs 3 and 4 respectively. The value of CE can then be calculated from the ratios of the EC50 values and the maximum open probabilities in control and when potentiated by NS9283, as follows: EC50ctrl/Po,maxctrl=K/E (5) EC50NS/Po,maxNS=K/CE.E (6) CE=Po,maxNS/Po,maxctrl×EC50ctrl/EC50NS (7)
As NS9283 binds selectively to the α4-α4 site, we assumed that it has the same multiplier effect; regardless of which partial agonist is bound at the α4-β2 site. […] Equilibrium constants were then calculated using the following equations. Rearranging Eq 3: 1/Po.maxCtrl−1=1+D.E/E (8)
Rearranging to give D. D=CE(1/Po,maxNS−1)−(1/Po,maxctrl−1)/CE−1 (11)
Rearranging Eq 3 to give E. E=Po,maxctrl/(1−Po,maxctrl−D.Po,maxctrl) (12)
Rearranging Eqs 5 and 6 to give K K=E.EC50ctrl/Po,maxctrl=CE.E.EC50NS/Po,maxNS (13)
The open probability for this model is given by the following: Po=E.F.[A]/K+[A](1+F+E.F) (17)
Where K is the dissociation constant, F is the pre-activating equilibrium constant and E is the gating constant. It also follows that the maximum open probability is given by: Po,max=E.F/1+F+E.F (18)
Thus, both F and E will have an influence on the observed macroscopic efficacy. The half-maximum effective concentration is: EC50=K/1+F+E.F (19)
We investigated the possibility that NS9283 increases the pre-activation constant, F, by a factor, CF, in Model 2 (Fig 5B; Scheme 2).
By subtracting Eq 21 from Eq 22 and re-arranging in terms of E: E=CF−1/CF(1/Po,maxNS−1)−(1/Po,maxctrl−1) (23)
The value of E can then be calculated using Eq 23.

[4] = biological target: T2, 2α4:3β2 nAChR (Homo sapiens, UniProt P17787+P43681); test: Two-electrode voltage-clamp electrophysiology in Xenopus oocytes, WT 2α4:3β2 receptor; assay type: cell-based; conditions: for Agonist type: 2α4:3β2, relative to saturating ACh (1 mM)
T2 construct: expressed in transfected cells; host or cells: Xenopus laevis oocytes injected with cRNA (α4:β2 ratio 1:4)
T2 sequence (P43681 29-627 limits assumed): as the sequence (P43681 29-627 limits assumed) above
T2 sequence (P17787 26-502): as the sequence (P17787 26-502) above
Description: as §1, §2, §3, §4

[5] = system: T3, 3α4:2β2^HQT nAChR (β2 V136H, F144Q, L146T); test: Two-electrode voltage-clamp electrophysiology in Xenopus oocytes, mutated 3α4:2β2^HQT receptor; assay type: cell-based, human; conditions: for I/I1mM ACh: 3α4:2β2^HQT; for Activation of 3α4:2β2^HQT mutant receptors: receptor with three α4-α4-like interfaces
T3 construct: expressed in transfected cells; host or cells: Xenopus laevis oocytes injected with cRNA
Description: as §1, §2, §3
Nevertheless, a contribution to Saz-A and TC-2559 activation from binding at the α4-α4 interface cannot be excluded from these experiments. Therefore, Saz-A and TC-2559 were applied to mutated 3α4:2β2^HQT receptors where the α4-β2 binding site is abolished. […]

[6] = read-out: K (binding equilibrium constant), Model-1, Model 1, 3α4:2β2
[7] = read-out: K (binding equilibrium constant), Model-2, Model 2, 3α4:2β2
[8] = 3α4:2β2, co-applied with NS9283 (10 μM)

Structure (SMILES)	Est Pomax ([2]; 3α4:2β2, ligand alone)	I/I1mM ACh (maximum response normalized to 1 mM ACh) ([4]; 2α4:3β2, ligand alone) [%]	Agonist type [4]	D (desensitized equilibrium constant), Model-1 ([3]; Model 1, 3α4:2β2)	E (gating equilibrium constant), Model-1 ([3]; Model 1, 3α4:2β2)	E (gating equilibrium constant), Model-2 ([3]; Model 2, 3α4:2β2)	F (flipping equilibrium constant), Model-2 ([3]; Model 2, 3α4:2β2)	Constant multiplier C (CE / CF) [3]	Kd [3, 6] [nM]	Kd [3, 7] [nM]	I/I1mM ACh [5]	Activation of 3α4:2β2^HQT mutant receptors [5]	Decrease of EC50 value by co-application of NS9283 [2] [fold]	Increase of maximum response by co-application of NS9283 [2] [fold]	Est Pomax [2, 8]	I/I1mM ACh (maximum response normalized to 1 mM ACh) ([2]; 3α4:2β2, ligand alone) [%]	Agonist type [2]	other results
CC(=O)OCC[N+](C)(C)C [ACh, acetylcholine]	51 ± 5%	–	–	–	–	–	–	–	–	–	–	–	–	–	–	–	–	Potency of α4-α4 binding site relative to α4-β2 binding site (less potent) [1]: ~ 100 fold
N#Cc1cccc(-c2nc(-c3cccnc3)no2)c1 [NS9283]	–	–	–	–	–	–	–	–	–	–	–	–	–	–	–	–	–	Constant multiplier C (CE / CF), averaged over Saz-A and TC-2559 ([3]; NS9283 potentiation of Saz-A and TC-2559 activation, averaged): 8.94
OCCCCC#Cc1cncc(OC[C@@H]2CCN2)c1 [Saz-A, Sazetidine-A]	9.1% and 9 ± 0.7%	108 ± 6	full agonist	0.50	0.10	1.99	0.05	8.7 and 8.75	27	27	0* %	do not activate; also recorded: Neither Saz-A or TC-2559 activated	2	4.4	39% and 39 ± 1.5%	18 ± 1.4	partial agonists	EC50 ([4]; 2α4:3β2, ligand alone, Hill co-efficient of one): 10 nM; EC50 ([2]; 3α4:2β2, ligand alone, Hill co-efficient of one): 23 nM
CCOc1cncc(/C=C/CCNC)c1 [TC-2559]	20% and 20 ± 2%	330 ± 10	super agonist	0.28	0.27	3.59	0.08	9.2 and 9.15	833	836	0* %	do not activate; also recorded: Neither Saz-A or TC-2559 activated	3.1	2.9	59% and 59 ± 1.5%	41 ±4	partial agonists	Difference of EC50 values between 3α4:2β2 and 2α4:3β2 receptors ([2]; 3α4:2β2 vs 2α4:3β2): 5 fold
